What was measured:
[1] = biological target: T1, Plasma kallikrein (Homo sapiens, UniProt P03952); test: Inhibition of purified human plasma kallikrein using H-D-Pro-Phe-Arg-pNA.2HCl as substrate measured after 3 mins by microplate reader analysis
[2] = biological target: T1, Plasma kallikrein; test: Inhibition of endogenous human plasma kallikrein using Z-Phe-Arg-AMC.HCl as substrate measured after 5 mins by microplate reader analysis
[3] = Cmax in rat at 5 mg/kg, po; format: ADME, organism-based; design: route oral, dose 5 mg/kg; details: in vivo
[4] = Plasma concentration in rat at 5 mg/kg, po after 12 hrs; format: ADME, organism-based
[5] = Plasma concentration in rat at 5 mg/kg, po after 24 hrs; format: ADME, organism-based
[6] = AUC in rat at 5 mg/kg, po after 12 hrs; format: ADME, organism-based; design: route oral, time 12 hrs, dose 5 mg/kg; details: in vivo
[7] = AUC in rat at 5 mg/kg, po after 24 hrs; format: ADME, organism-based; design: route oral, dose 5 mg/kg, time 24 hrs; details: in vivo

T1 sequence (P03952 20-390 limits assumed): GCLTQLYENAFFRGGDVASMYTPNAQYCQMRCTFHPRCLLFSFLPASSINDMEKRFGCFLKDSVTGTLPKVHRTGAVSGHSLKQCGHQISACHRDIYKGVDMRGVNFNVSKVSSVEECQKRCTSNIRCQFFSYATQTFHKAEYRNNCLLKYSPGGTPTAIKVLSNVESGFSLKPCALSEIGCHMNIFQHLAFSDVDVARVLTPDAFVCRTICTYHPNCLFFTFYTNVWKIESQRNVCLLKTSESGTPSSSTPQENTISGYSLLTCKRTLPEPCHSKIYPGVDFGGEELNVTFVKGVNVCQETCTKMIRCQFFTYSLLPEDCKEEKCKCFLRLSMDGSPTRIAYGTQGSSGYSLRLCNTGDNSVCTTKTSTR
T1 sequence (P03952 391-638 limits assumed): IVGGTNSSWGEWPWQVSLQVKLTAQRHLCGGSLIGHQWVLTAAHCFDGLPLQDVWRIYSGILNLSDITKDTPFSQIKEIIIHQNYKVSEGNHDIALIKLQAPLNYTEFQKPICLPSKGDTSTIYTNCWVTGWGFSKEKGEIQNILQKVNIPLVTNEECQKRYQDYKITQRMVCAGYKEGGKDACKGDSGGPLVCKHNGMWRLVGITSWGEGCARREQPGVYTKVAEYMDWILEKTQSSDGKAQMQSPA

Compound	IC50 [1] [nM]	IC50 [2] [nM]	other results
NCc1cccc(-n2nc(C(F)(F)F)cc2C(=O)Nc2cccc(C(OCC3CC3)c3ccccc3)c2)c1 (configuration not stated)	37.6	300	–
NCc1cccc(-n2nc(C(F)(F)F)cc2C(=O)Nc2cc(C(NCC3CC3)c3ccccc3)ccc2F)c1 (stereo in doubt; 25)	–	–	Cmax [3]: 51 ng/mL; concentration at 12 h [4]: 31 ng/mL; concentration at 24 h [5]: 29 ng/mL; AUC at 12 h [6]: 493 ng·h/mL; AUC at 24 h [7]: 852 ng·h/mL
NCc1cccc(-n2nc(C(F)(F)F)cc2C(=O)Nc2ccc(C(O)c3ccccc3)cc2F)c1 (configuration not stated)	1000	–	–
NCc1cccc(-n2nc(C(F)(F)F)cc2C(=O)Nc2cc(C(NCC3CC3)c3cccnc3)ccc2F)c1 (configuration not stated)	10	10	Cmax [3]: 58 ng/mL; AUC at 12 h [6]: 128 ng·h/mL
NCc1cccc(-n2nc(C(F)(F)F)cc2C(=O)Nc2cccc(C(O)c3ccccc3)c2F)c1 (configuration not stated)	149	–	–
NCc1cccc(-n2nc(C(F)(F)F)cc2C(=O)O)c1	15400	–	–
NCc1cccc(-n2nc(C(F)(F)F)cc2C(=O)Nc2ccccc2)c1	22600	–	–
CCOC(c1ccccc1)c1ccc(F)c(NC(=O)c2cc(C(F)(F)F)nn2-c2cccc(CN)c2)c1 (configuration not stated)	134	1280	–

Reference: ChEMBL document CHEMBL4842368, “Berotralstat (BCX7353): Structure-Guided Design of a Potent, Selective, and Oral Plasma Kallikrein Inhibitor to Prevent Attacks of Hereditary Angioedema (HAE)” (J Med Chem, 2021)
